# Data as given in patent US20230270731A1, “THERAPEUTIC COMPOUNDS AND COMPOSITIONS” (eXIthera Pharmaceuticals, Inc., priority 2019, published 2023).
# Like-named read-outs stand apart in the source and are kept apart here.
# What was measured:
# [1] = pH-dependent stability and pH-rate profile, 10-day, 4° C. and 40° C.; type: physicochemical; details: for stability in buffered aqueous solutions: pH=2-8, 0.1 mg/mL, 100 mM buffer, in the dark, 10 days
# Protocol: The stability Compound 1 was assessed over a 10-day period at several pH-values pH=2, 3, 4, 5, 6, 7, 8) and at two different temperatures (4° C., 40° C.). Samples of Compound 1 at c(Compound 1)=0.1 mg/mL were prepared in standard buffers (Table 2) at a buffer strength of c(buffer)=100 mM and incubated at either T=4° C. or T=40° C. (exclusion from light during incubation and analysis). The concentration of Compound 1 was assessed in such samples via HPLC analysis at an initial time point (to) and on days 1, 2, 3, 4, 7 and 10 (Δt=day×24 h). The pH was monitored at identical time points during the 10-day period.
# Over the 10-day period for both temperatures the pH of the sample solutions (FIG. 2A & FIG. 2B) was monitored and the recovery (R %) of Compound 1 (FIG. 3A & FIG. 3B) was calculated via:
# whereas c(Compound 1, theor.)=0.1 mg/mL and c(Compound 1, actual) is determined by HPLC analysis via integration of the Compound 1 parent peak areas.
# [2] = Compatibility with vials and stoppers; type: physicochemical
# Protocol: The compatibility of the reconstituted Compound 1 formulation with sterile manufacturing vials and stoppers (Table 17) was tested for a contact time of Δt=1 h at c(Compound 1, target)=10 mg/mL at ambient conditions. The average values of % recovery are relative to the reconstituted drug product that has not been in contact with the tested materials.
# [3] = Compatibility with sterilization filters; type: physicochemical
# Protocol: The feasibility of aseptic processing was evaluated and three different filter materials were tested for compatibility with the reconstituted Compound 1 formulation.
# Filter compatibility of the reconstituted Compound 1 drug product was tested with different filter material (Table 17) composed of polyethersulfone (PES), nylon, and polyvinylidene fluoride (PVDF). For this a volume of Vfilter pass=10 mL was passed through the respective filter and the first as well as the last 10 vol % of the filtered volume were assayed for recovery of Compound 1 (Table 12).
# The average values of % recovery are relative to the reconstituted drug product that has not been in contact with the tested materials.
# [4] = Liquid injectable formulation: compounding, dilution into infusion vehicles, stability; type: physicochemical
# Protocol: Compounding process for liquid formulations of Compound 1, designed for dilution into infusion vehicles was developed with 3.0 mg/mL of Compound 1 (or 3.13 mg/mL Compound 1 free base equivalent), phosphate buffer solution (PBS), and pH of 6.4-7.2. The compounding process was applied over a wide range of scales (25-500 mL).
# The compounding of the drug product required a neutralization step using 0.5N sodium hydroxide solution and buffering with PBS to adjust the pH to values compatible with an IV infusion. The compounding process also required a filtration step, which also served as aseptic processing.
# The compounded formulations were diluted into infusion vehicles: normal saline, 5% dextrose in water (D5W), and lactated Ringer's solution (buffered and unbuffered). The dilution into normal saline was carried out at 100-fold and 600-fold dilution.
# [5] = test system: blood coagulation components (Cardiopulmonary Bypass circuit); type: in vivo
# Protocol: The following parameters and endpoints were evaluated in this study: mortality, body weight, physical, clinical pathology parameters (hematology and coagulation), coagulation time, and bioanalytical parameters.
# The vehicle and test article were administered via intravenous (IV) infusion once on Day 1 for 135 minutes (initiated 30 minutes prior to starting the Cardiopulmonary Bypass (CPB) and continuing for 105 minutes of CPB). Group 2 animals received a […] IV bolus dose immediately prior to the start of IV infusion. Group 3, 4, and 5 animals received a 10 mg/kg IV bolus dose prior to the start of the IV infusion; with the CPB machine primed with test article at 10 μg/mL.
# Infusion of the Compound 1 was started 30 minutes prior to the animal being placed on the CPB pump. The CPB pump was primed with 0.9% saline.
# Venous and arterial sheaths were flushed with the Compound 1 at a concentration of 10 μg/mL. An IV bolus dose of the test article was administered immediately prior to the start of the infusion. Infusion of Compound 1 was started 30 minutes prior to the animal being placed on the CPB pump. The CPB […] was primed with 10 μg/mL of the Compound 1 prior to initiation of the CPB pump.
# An IV bolus dose of the Compound 1 was administered immediately prior to the start of the infusion. Infusion of Compound 1 was started 30 minutes prior to the animal being placed on the CPB pump.
structure (smiles),measurement,setting,value
"C[C@@H](NC(=O)N1C(=O)[C@H](Cc2ccnc(N)c2)[C@H]1C(=O)O)C1CCCCC1 [Compound 1, (2S,3R)-3-[(2-aminopyridin-4-yl)methyl]-1-{[(1R)-1-cyclohexylethyl]carbamoyl}-4-oxoazetidine-2-carboxylic acid]",precipitation of the drug compound,"[1]; 0.1 mg/mL, pH 2-8, 10 days",no precipitation
same,stability/pH-correlation,"[1]; pH 2-8, 10 days",more stable towards a low pH and less stable towards a higher pH
same,stability in buffered aqueous solutions,[1]; 4° C.,stable
same,stability in buffered aqueous solutions,[1]; 40° C.,significant degradation
same,"Avg. c(Compound 1, FB, Obs.)","[2]; Reconst. Soln., no contact with tested materials",9.32 mg/mL
same,"Avg. c(Compound 1, FB, Obs.)","[2]; Stopper, t = 1 h, target 10 mg/mL, ambient",9.28 mg/mL
same,"Avg. c(Compound 1, FB, Obs.)","[2]; Vial, t = 1 h, target 10 mg/mL, ambient",9.28 mg/mL
same,"Avg. c(Compound 1, FB, Obs.)","[3]; Nylon filter, first 10% of 10 mL",0.94 mg/mL
same,"Avg. c(Compound 1, FB, Obs.)","[3]; Nylon filter, last 10% of 10 mL",0.95 mg/mL
same,"Avg. c(Compound 1, FB, Obs.)","[3]; PES filter, first 10% of 10 mL",0.94 mg/mL
same,"Avg. c(Compound 1, FB, Obs.)","[3]; PES filter, last 10% of 10 mL",0.95 mg/mL
same,"Avg. c(Compound 1, FB, Obs.)","[3]; PVDF filter, first 10% of 10 mL",0.95 mg/mL
same,"Avg. c(Compound 1, FB, Obs.)","[3]; PVDF filter, last 10% of 10 mL",0.95 mg/mL
same,"Avg. c(Compound 1, FB, Obs.)",[3]; Sample Soln. (pre-filtration),0.95 mg/mL
same,back-pressure during filtration,[3]; any of the tested filters,No increase
same,pH over time,"[4]; diluted into normal saline, 0.03 mg/mL, ambient, 48 hours",constant
same,purity over time,"[4]; diluted into normal saline, 0.03 mg/mL, ambient, over 48 hours",unchanged
same,time stable at ambient temperature,"[4]; formulation diluted into normal saline, 0.03 mg/mL",at least 48 hours
same,loss of Compound 1 in filtration step of compounding,"[4]; liquid formulation 3.0 mg/mL, PBS, pH 6.4-7.2",minimal loss or no loss
same,nominal degradation,"[4]; liquid formulations, 2-8° C., at least one week",< 4%
same,relation between plasma concentration and aPTT,[5]; FIG. 12,correlation
same,aPTT,"[5]; all groups, following cessation of infusion and CPB","trended towards baseline values, but remained moderately prolonged"
same,prolongations in aPTT,[5]; course during infusion and CPB,persisted throughout Compound 1 infusion and CPB
same,morbidity or mortality,"[5]; dog, in vivo",not associated with any increases in morbidity or mortality
same,survival,"[5]; dog, in vivo",All animals survived
same,aPTT,"[5]; during Compound 1 infusion and prior to CPB, all animals",moderately to markedly prolonged
same,prevention of activation of blood coagulation in components of cardiopulmonary bypass,[5]; hound CPB model,successful in preventing the activation of blood coagulation
same,selectivity of anticoagulant effects,"[5]; hound CPB model, coagulation parameters",selective to inhibition of activated partial thromboplastin time (aPTT)
same,pressure gradient across the membrane oxygenator,"[5]; multiple doses, IV infusion, CPB run",stayed consistent through the entire run
